Laboratory results taken from ChEMBL document CHEMBL2046389, “Contribution of indazolinone tautomers to kinase activity” (Bioorg Med Chem Lett, 2012).

Target: Vascular endothelial growth factor receptor 2 (Homo sapiens, UniProt P35968)
Assay: Inhibition of KDR in presence of 1 mM ATP

Chain of Vascular endothelial growth factor receptor 2 (P35968 whole entry): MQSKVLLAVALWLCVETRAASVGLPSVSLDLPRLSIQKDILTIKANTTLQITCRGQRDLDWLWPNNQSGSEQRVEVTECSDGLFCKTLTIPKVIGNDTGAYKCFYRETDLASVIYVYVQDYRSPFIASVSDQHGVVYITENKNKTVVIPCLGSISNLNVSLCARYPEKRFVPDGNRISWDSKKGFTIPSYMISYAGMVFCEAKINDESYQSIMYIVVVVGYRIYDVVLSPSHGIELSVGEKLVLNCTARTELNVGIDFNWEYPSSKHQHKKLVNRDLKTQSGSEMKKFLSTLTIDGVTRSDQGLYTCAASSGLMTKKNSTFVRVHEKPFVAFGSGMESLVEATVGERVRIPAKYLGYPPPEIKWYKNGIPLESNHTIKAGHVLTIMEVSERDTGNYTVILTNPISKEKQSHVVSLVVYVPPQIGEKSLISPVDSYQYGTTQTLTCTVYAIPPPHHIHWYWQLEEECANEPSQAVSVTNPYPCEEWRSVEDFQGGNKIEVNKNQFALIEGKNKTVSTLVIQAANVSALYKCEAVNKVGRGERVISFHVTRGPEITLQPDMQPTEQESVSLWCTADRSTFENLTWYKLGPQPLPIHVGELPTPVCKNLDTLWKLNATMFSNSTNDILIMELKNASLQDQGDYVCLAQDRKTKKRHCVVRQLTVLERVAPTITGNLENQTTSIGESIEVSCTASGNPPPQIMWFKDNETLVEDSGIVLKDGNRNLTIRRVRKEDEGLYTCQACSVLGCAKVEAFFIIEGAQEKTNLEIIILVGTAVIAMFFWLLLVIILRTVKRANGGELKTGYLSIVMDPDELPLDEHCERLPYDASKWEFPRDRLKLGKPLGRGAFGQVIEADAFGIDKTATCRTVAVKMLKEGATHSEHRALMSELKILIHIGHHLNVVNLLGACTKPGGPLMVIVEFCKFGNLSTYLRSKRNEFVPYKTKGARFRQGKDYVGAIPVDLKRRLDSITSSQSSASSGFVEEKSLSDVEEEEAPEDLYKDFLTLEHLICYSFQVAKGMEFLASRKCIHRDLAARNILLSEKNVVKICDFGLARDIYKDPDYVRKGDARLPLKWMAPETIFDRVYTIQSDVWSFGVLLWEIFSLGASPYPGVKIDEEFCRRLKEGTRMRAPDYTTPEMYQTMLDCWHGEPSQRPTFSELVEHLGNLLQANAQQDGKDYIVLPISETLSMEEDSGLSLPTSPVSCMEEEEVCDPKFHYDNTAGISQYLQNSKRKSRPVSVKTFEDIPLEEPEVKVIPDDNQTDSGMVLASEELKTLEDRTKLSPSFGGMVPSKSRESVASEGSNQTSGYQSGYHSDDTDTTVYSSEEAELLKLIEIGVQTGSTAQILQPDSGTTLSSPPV

| IC50 | SMILES |
| --- | --- |
| 0.04 µM | O=C(Nc1ccc(-c2cccc3c(=O)[nH][nH]c23)cc1)Nc1cccc(C(F)(F)F)c1 |
| 0.01 µM | O=C(Nc1ccc(-c2cccc3[nH][nH]c(=O)c23)cc1)Nc1cccc(C(F)(F)F)c1 |
| > 1000 µM | Cc1cccc(NC(=O)Nc2ccc(-c3cccc4c3C(=O)NC4)cc2)c1 |
| > 1000 µM | Cc1cccc(NC(=O)Nc2ccc(-c3cccc4c(N)n[nH]c34)cc2)c1 |
